Key:
[1] = alone and in combination with chemotherapeutic agents for cancer therapies; cited from earlier work
[2] = system: E. faecalis clinical isolates; experiment: MIC90 studies: fluoroquinolone susceptibility of clinical isolate panel with EPI; type: cell-based; conditions: EPI at 50 μg/ml
Method in brief: (§1)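 Fluoroquinolone MICs with efflux pump inhibitor measured against panels of resistant clinical isolates by NCCLS protocols. MIC90 taken across each panel. Oxacillin and vancomycin MICs run alongside to flag methicillin-resistant S. aureus and vancomycin-resistant E. faecalis isolates.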

[3] = system: S. aureus clinical isolates; experiment: as above; type: cell-based; conditions: EPI at 50 μg/ml
Method in brief: as §1

S. aureus ATCC 29213 = experiment: MIC by NCCLS microdilution, antibacterial agents with and without EPI; type: cell-based; conditions: at 100 μg/ml
[4] = E. faecalis clinical isolate 10
[5] = E. faecalis clinical isolate 11
[6] = E. faecalis clinical isolate 12
[7] = E. faecalis clinical isolate 13
[8] = E. faecalis clinical isolate 14
[9] = E. faecalis clinical isolate 15
[10] = E. faecalis clinical isolate 16
[11] = E. faecalis clinical isolate 17
[12] = E. faecalis clinical isolate 18
[13] = E. faecalis clinical isolate 19
[14] = E. faecalis clinical isolate 20
[15] = E. faecalis clinical isolate 21
[16] = E. faecalis clinical isolate 22
[17] = E. faecalis clinical isolate 23
[18] = E. faecalis clinical isolate 24
[19] = E. faecalis clinical isolate 25
[20] = E. faecalis clinical isolate 26

COc1cc(C(=O)C(=O)N2CCCC[C@H]2C(=O)OC(CCCc2cccnc2)CCCc2cccnc2)cc(OC)c1OC [A-106]
adverse events in clinical studies [1]: only mild adverse events
Ciprofloxacin MIC with EPI ([2]; E. faecalis clinical isolate 1): 0.5 µg/mL
Norfloxacin MIC with EPI ([2]; E. faecalis clinical isolate 1): 2 µg/mL
Ciprofloxacin MIC with EPI ([2]; E. faecalis clinical isolate 2): 0.5 µg/mL
Norfloxacin MIC with EPI ([2]; E. faecalis clinical isolate 2): 1 µg/mL
Ciprofloxacin MIC with EPI ([2]; E. faecalis clinical isolate 3): 32 µg/mL
Norfloxacin MIC with EPI ([2]; E. faecalis clinical isolate 3): 64 µg/mL
Ciprofloxacin MIC with EPI ([2]; E. faecalis clinical isolate 4): 32 µg/mL
Norfloxacin MIC with EPI ([2]; E. faecalis clinical isolate 4): 64 µg/mL
Ciprofloxacin MIC with EPI ([2]; E. faecalis clinical isolate 5): 32 µg/mL
Norfloxacin MIC with EPI ([2]; E. faecalis clinical isolate 5): 64 µg/mL
Ciprofloxacin MIC with EPI ([2]; E. faecalis clinical isolate 6): 0.5 µg/mL
Norfloxacin MIC with EPI ([2]; E. faecalis clinical isolate 6): 1 µg/mL
Ciprofloxacin MIC with EPI ([2]; E. faecalis clinical isolate 7): 0.5 µg/mL
Norfloxacin MIC with EPI ([2]; E. faecalis clinical isolate 7): 1 µg/mL
Ciprofloxacin MIC with EPI ([2]; E. faecalis clinical isolate 8): 32 µg/mL
Norfloxacin MIC with EPI ([2]; E. faecalis clinical isolate 8): 64 µg/mL
Ciprofloxacin MIC with EPI ([2]; E. faecalis clinical isolate 9): 1 µg/mL
Norfloxacin MIC with EPI ([2]; E. faecalis clinical isolate 9): 2 µg/mL
Ciprofloxacin MIC with EPI [2, 4]: 16 µg/mL
Norfloxacin MIC with EPI [2, 4]: 32 µg/mL
Ciprofloxacin MIC with EPI [2, 5]: 16 µg/mL
Norfloxacin MIC with EPI [2, 5]: 64 µg/mL
Ciprofloxacin MIC with EPI [2, 6]: 0.5 µg/mL
Norfloxacin MIC with EPI [2, 6]: 1 µg/mL
Ciprofloxacin MIC with EPI [2, 7]: 0.5 µg/mL
Norfloxacin MIC with EPI [2, 7]: 1 µg/mL
Ciprofloxacin MIC with EPI [2, 8]: 0.25 µg/mL
Norfloxacin MIC with EPI [2, 8]: 0.5 µg/mL
Ciprofloxacin MIC with EPI [2, 9]: 1 µg/mL
Norfloxacin MIC with EPI [2, 9]: 2 µg/mL
Ciprofloxacin MIC with EPI [2, 10]: 1 µg/mL
Norfloxacin MIC with EPI [2, 10]: 2 µg/mL
Ciprofloxacin MIC with EPI [2, 11]: 0.5 µg/mL
Norfloxacin MIC with EPI [2, 11]: 2 µg/mL
Ciprofloxacin MIC with EPI [2, 12]: 32 µg/mL
Norfloxacin MIC with EPI [2, 12]: 64 µg/mL
Ciprofloxacin MIC with EPI [2, 13]: 1 µg/mL
Norfloxacin MIC with EPI [2, 13]: 2 µg/mL
Ciprofloxacin MIC with EPI [2, 14]: 0.5 µg/mL
Norfloxacin MIC with EPI [2, 14]: 2 µg/mL
Ciprofloxacin MIC with EPI [2, 15]: 0.5 µg/mL
Norfloxacin MIC with EPI [2, 15]: 1 µg/mL
Ciprofloxacin MIC with EPI [2, 16]: 32 µg/mL
Norfloxacin MIC with EPI [2, 16]: 64 µg/mL
Ciprofloxacin MIC with EPI [2, 17]: 32 µg/mL
Norfloxacin MIC with EPI [2, 17]: 32 µg/mL
Ciprofloxacin MIC with EPI [2, 18]: 16 µg/mL
Norfloxacin MIC with EPI [2, 18]: 32 µg/mL
Ciprofloxacin MIC with EPI [2, 19]: 32 µg/mL
Norfloxacin MIC with EPI [2, 19]: 64 µg/mL
Ciprofloxacin MIC with EPI [2, 20]: 32 µg/mL
Norfloxacin MIC with EPI [2, 20]: 64 µg/mL
trend in the reduction of MICs for ciprofloxacin and norfloxacin ([2]; E. faecalis isolates, Table 5B): two-fold trend in the reduction of MICs
change of norfloxacin MIC in combination with EPI ([3]; S. aureus isolates # 3, 6, 9): reductions in MICs
change of ciprofloxacin MIC in combination with EPI ([3]; S. aureus isolates # 3 and 5): reductions in MICs
isolates with >2-fold decrease in the MIC for ciprofloxacin ([3]; S. aureus isolates, Table 5A): 10/15
isolates with >2-fold decrease in the MIC for norfloxacin ([3]; S. aureus isolates, Table 5A): 13/15
restoration of clinical susceptibility ([3]; highly fluoroquinolone-resistant strains in the panel): insufficient to restore clinical susceptibility
Ciprofloxacin MIC with EPI ([3]; S. aureus clinical isolate 1): 0.5 µg/mL
Norfloxacin MIC with EPI ([3]; S. aureus clinical isolate 1): 2 µg/mL
Ciprofloxacin MIC with EPI ([3]; S. aureus clinical isolate 2): 0.12 µg/mL
Norfloxacin MIC with EPI ([3]; S. aureus clinical isolate 2): ≦0.25 μg/ml
Ciprofloxacin MIC with EPI ([3]; S. aureus clinical isolate 3): ≦0.06 μg/ml
Norfloxacin MIC with EPI ([3]; S. aureus clinical isolate 3): ≦0.25 μg/ml
Ciprofloxacin MIC with EPI ([3]; S. aureus clinical isolate 4): 64 µg/mL
Norfloxacin MIC with EPI ([3]; S. aureus clinical isolate 4): 128 µg/mL
Ciprofloxacin MIC with EPI ([3]; S. aureus clinical isolate 5): ≦0.06 μg/ml
Norfloxacin MIC with EPI ([3]; S. aureus clinical isolate 5): ≦0.25 μg/ml
Ciprofloxacin MIC with EPI ([3]; S. aureus clinical isolate 6): 8 µg/mL
Norfloxacin MIC with EPI ([3]; S. aureus clinical isolate 6): 8 µg/mL
Ciprofloxacin MIC with EPI ([3]; S. aureus clinical isolate 7): ≦0.06 μg/ml
Norfloxacin MIC with EPI ([3]; S. aureus clinical isolate 7): ≦0.25 μg/ml
Ciprofloxacin MIC with EPI ([3]; S. aureus clinical isolate 8): 0.25 µg/mL
Norfloxacin MIC with EPI ([3]; S. aureus clinical isolate 8): 1 µg/mL
Ciprofloxacin MIC with EPI ([3]; S. aureus clinical isolate 9): ≦0.06 μg/ml
Norfloxacin MIC with EPI ([3]; S. aureus clinical isolate 9): ≦0.25 μg/ml
Ciprofloxacin MIC with EPI ([3]; S. aureus clinical isolate 10): 8 µg/mL
Norfloxacin MIC with EPI ([3]; S. aureus clinical isolate 10): 16 µg/mL
Ciprofloxacin MIC with EPI ([3]; S. aureus clinical isolate 11): 8 µg/mL
Norfloxacin MIC with EPI ([3]; S. aureus clinical isolate 11): 32 µg/mL
Ciprofloxacin MIC with EPI ([3]; S. aureus clinical isolate 12): ≦0.06 μg/ml
Norfloxacin MIC with EPI ([3]; S. aureus clinical isolate 12): ≦0.25 μg/ml
Ciprofloxacin MIC with EPI ([3]; S. aureus clinical isolate 13): 32 µg/mL
Norfloxacin MIC with EPI ([3]; S. aureus clinical isolate 13): 64 µg/mL
Ciprofloxacin MIC with EPI ([3]; S. aureus clinical isolate 14): 32 µg/mL
Norfloxacin MIC with EPI ([3]; S. aureus clinical isolate 14): 64 µg/mL
Ciprofloxacin MIC with EPI ([3]; S. aureus clinical isolate 15): 32 µg/mL
Norfloxacin MIC with EPI ([3]; S. aureus clinical isolate 15): 64 µg/mL
intrinsic antibacterial activity of EPI (S. aureus ATCC 29213): no intrinsic antibacterial activity
